Assay results as given in article PMC13114161 (Antibiotics, 2026).

Experiments:
[1] = test system: P. aeruginosa ATCC 27853; assay: Membrane polarization assay DiOC2(3); format: cell-based, Pseudomonas aeruginosa; settings: Pseudomonas aeruginosa, ATCC27853; positive control; read-out: IC50 (membrane potential, DiOC2(3))
Protocol: RND efflux pumps require an intact proton motive force across the inner membrane to mediate drug efflux. Accordingly, collapse of the membrane potential could indirectly disable efflux activity and result in apparent antibiotic potentiation. To determine whether TXA11114 dissipates the membrane potential of P. aeruginosa, membrane polarization was assessed using the fluorescent probe 3,3′-diethyloxacarbocyanine iodide (DiOC2(3)). DiOC2(3) accumulates in cells with polarized membranes, undergoing a concentration-dependent shift from green to red fluorescence due to dye stacking; membrane depolarization prevents this shift. […] CCCP and azithromycin were included as positive and negative controls, respectively. […] This discrepancy likely reflects a methodological limitation of the DiOC2(3) assay in Gram-negative bacteria. Specifically, EDTA treatment is required to transiently permeabilize the outer membrane to permit DiOC2(3) access to the cytoplasmic membrane (see Methods). While necessary for probe uptake, EDTA can sensitize cells to secondary perturbations and may exaggerate subtle fluorescence changes at supraphysiological compound concentrations.
P. aeruginosa membrane polarization assays were conducted as described previously using strain ATCC 27853. Briefly, mid-exponential phase (OD600 of 0.5) P. aeruginosa was pelleted by centrifugation at 3000× g for 10 min at room temperature. Cells were then resuspended in 1× PBS, treated with 10 mM EDTA for 5 min and then centrifuged at 300× g for 10 min to remove EDTA. EDTA-treated cells were pelleted and resuspended to an OD600 of 1.0 in assay resuspension buffer. A 6 mM DiOC2(3) stock in DMSO was added to cells for a final concentration of 30 µM. DiOC2(3)-loaded cells were then added to a 96-well black bottom microplate for a final volume of 200 µL. […] After 15 min incubation at 37 °C in dark, DiOC2(3) fluorescence was recorded using the SpectraMax iD5 spectrophotometer (Molecular Devices, San Jose, CA, USA) using 450 nm excitation. Red fluorescence intensity was recorded at 670 nm emission.

[2] = test system: P. aeruginosa ATCC 27853; assay: Intracellular ATP levels; format: cell-based, Pseudomonas aeruginosa; settings: three hours post-treatment
Protocol: Further, a deviation from normal membrane function can affect the activity of respiratory components and diminish ATP synthesis. Thus, an indirect approach to assess a drug’s membrane effect is by monitoring cellular ATP levels after treatment. To exclude ATP depletion as a TXA11114 MoA, bacterial ATP levels were evaluated three hours post-treatment. […] Azithromycin was used as a negative control.
P. aeruginosa intracellular ATP levels were determined as described previously using an ATP determination kit (Invitrogen, Life Technologies, Carlsbad, CA, USA). Bacterial culture strain ATCC 27853 was grown to the mid-log phase (OD600 = 0.7), washed, and resuspended in the same volume of PBSM (1X PBS, 1mM MgCl2). […] After treatment, the cells were lysed in chloroform which was subsequently removed by boiling at 80 °C. The persistent ATP from cell lysate was measured in a 96-well black flat-bottom plate by measuring the luminescence. Luminescence was converted to concentration from standard curve. […] Error bars represent the standard deviation of triplicates.

[3] = test system: P. aeruginosa; assay: MIC potentiation of antimicrobial agents by EPIs; format: cell-based, Pseudomonas aeruginosa; settings: for Fold difference of antibiotic MIC + TXA01182 / MIC of antibiotic + TXA01182: TXA01182 at […]; for Fold difference of antibiotic MIC + TXA09155 / MIC of antibiotic + TXA09155: TXA09155 at […]; for Fold difference of antibiotic MIC + TXA11114 / MIC of antibiotic + TXA11114: TXA11114 at […];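 on Fold difference of antibiotic MIC + TXA01182: TXA01182 tested at 6.25 µg/mL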;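 on Fold difference of antibiotic MIC + TXA09155: TXA09155 tested at 6.25 µg/mL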; on Fold difference of antibiotic MIC + TXA11114: TXA11114 at 6.25 µg/mL;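 on MIC of antibiotic + TXA01182: TXA01182 tested at 6.25 µg/mL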;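 on MIC of antibiotic + TXA09155: TXA09155 tested at 6.25 µg/mL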; on MIC of antibiotic + TXA11114: TXA11114 at 6.25 µg/mL
Protocol: In contrast, the activities of gentamicin and imipenem were unchanged in the presence of TXA11114 under the conditions tested. Although gentamicin can be transported by the MexXY efflux system, the absence of potentiation in this assay is not sufficient to draw conclusions regarding MexXY inhibition or overall efflux specificity.
(§1) MIC assays for potentiation of antimicrobial activity against P. aeruginosa were performed as described previously.

[4] = test system: P. aeruginosa K1119 (∆mexAB-oprM); assay: Antibiotic MIC potentiation in efflux mutants; format: cell-based, Pseudomonas aeruginosa
Protocol: (§2) Next, the ability of TXA11114 to inhibit P. aeruginosa mutants overexpressing MexAB-OprM was evaluated. Loss of function mutations in nalB resulting in the overexpression of MexAB-OprM have been identified in P. aeruginosa clinical isolates and are associated with resistance to cephalosporins, fluoroquinolones and aminoglycosides. In theory, an EPI should reverse the antimicrobial susceptibility lost in bacteria-overexpressing efflux pumps. Thus, the TXA11114 EPI activity was studied using antibiotics that display efflux liabilities in this RND efflux pump (Table 5).
as §1

[5] = test system: P. aeruginosa K1455 (↑mexAB-oprM); assay: Antibiotic MIC potentiation in efflux mutants; format: cell-based, Pseudomonas aeruginosa
Protocol: as §2, §1

[6] = test system: P. aeruginosa K767 (WT); assay: Antibiotic MIC potentiation in efflux mutants; format: cell-based, Pseudomonas aeruginosa
Protocol: as §2, §1

[7] = test system: P. aeruginosa ATCC 27853; assay: MIC and levofloxacin potentiation (broth microdilution); format: cell-based, Pseudomonas aeruginosa; settings: ATCC 27853
Protocol: Once synthesized, the three fluorinated EPI analogs (TXA11114, TXA11164 and TXA12027) were first assayed for their antibacterial activities against P. aeruginosa ATCC 27853. They had MICs of 100, >200 and 100 µg/mL, respectively (Table 1). […] Particularly, the inactivity of TXA11164 was surprising as the pKa values of both the amines are similar to that in TXA11114.
as §1

[8] = in vivo; settings: female, CD-1, mouse, iv
Protocol: Thus, the safety and tolerability of TXA11114 was determined to find an optimum dosing capability. The maximum tolerated dose (MTD) of TXA11114 was assessed in female mice (CD-1, 6–8 weeks old) at the University of North Texas Health Science Center (UNTHSC). TXA11114 was administered IV to groups of three female mice. Mice were administered TXA11114 in the range 30–240 mg/kg (IV bolus). […] As doses are tolerated (not resulting in effects such as mortality, convulsions, or other severe morbidity), they are increased. Survival and general observations as to the tolerability of the administered dose started immediately and continued for a period of 48 h after each dose was recorded.

[9] = test system: P. aeruginosa ATCC 27853; assay: Neutropenic murine thigh infection model; format: in vivo, CD-1 mice; settings: thigh or lung infection models
Protocol: Female CD-1 mice (6–8 weeks old; 22 ± 2 g) were obtained from Envigo Laboratories, quarantined for at least 3 days, and housed 5 per cage in accordance with the approved IACUC protocol (IACUC-2017-0049). Neutropenia was induced by intraperitoneal (IP) administration of cyclophosphamide (Cytoxan) at 150 mg/kg on day 4 and 100 mg/kg on day 1 prior to infection.
Mice were infected intramuscularly (IM) in the right thigh with 0.1 mL of bacterial suspension containing approximately 1 × 10^5–10^6 CFU/mL. […] At 2 h or 24 h post-infection, mice were euthanized by CO2 asphyxiation, and thighs were aseptically excised and placed in 2 mL sterile phosphate-buffered saline (PBS) on ice. Tissue homogenization was performed using a Polytron PT10-35 (12 mm aggregate, Kinematica, Malters, Switzerland).
Plates were incubated overnight at 37 °C, and colonies were enumerated the following day.

[10] = test system: P. aeruginosa; set-up: method as in PMID 35052908, PMID 35740123; settings: against P. aeruginosa; cited from earlier work

Row | SMILES | IC50 [1] | Cellular ATP level [2] | Fold difference of antibiotic MIC + TXA01182 [3] | MIC of antibiotic + TXA01182 [3] | Fold difference of antibiotic MIC + TXA09155 [3] | MIC of antibiotic + TXA09155 [3] | Fold difference of antibiotic MIC + TXA11114 [3] | MIC of antibiotic + TXA11114 [3] | MIC Ratio of Antibiotics Alone/(Antibiotics + […] TXA11114) [4] | MIC Ratio of Antibiotics Alone/(Antibiotics + […] TXA11114) [5] | MIC Ratio of Antibiotics Alone/(Antibiotics + […] TXA11114) [6] | Fold difference of antibiotic MIC + TXA11114 ([3]; listed as imipenem) | Fold MIC reduction [LVX/EPI-LVX] ([7]; EPI at […]) | MIC ([7]; Pseudomonas aeruginosa, ATCC27853, EPI alone, read-out: EPI MIC) | LVX MIC (+EPI) ([7]; levofloxacin MIC with EPI at […]) | MTD at 48 h [8] | Improvement of levofloxacin efficacy in murine thigh or lung infection models [9] | Lowest concentration enhancing activity of monobactams, fluoroquinolones, sulfonamides and tetracyclines [10]
1 | N#CC(C#N)=NNc1cccc(Cl)c1 [CCCP, carbonyl cyanide 3-chlorophenylhydrazone] | 17 nM | significant depletion of ATP |  |  |  |  |  |  |  |  |  |  |  |  |  |  |  | 
2 | CO/N=C(\C(=O)N[C@@H]1C(=O)N2C(C(=O)[O-])=C(C[N+]3(C)CCCC3)CS[C@H]12)c1csc(N)n1 [Cefepime] |  |  | 2 fold | 1 µg/mL | 4 fold | 0.5 µg/mL | 4 fold | 0.5 µg/mL | 2 | 16 | 8 |  |  |  |  |  |  | 
3 | C[C@@H](O)[C@H]1C(=O)N2C(C(=O)O)=C(SCCN=CN)C[C@H]12 [Imipenem] |  |  | 1 fold | 4 µg/mL | 1 fold | 4 µg/mL | 1 fold | 4 µg/mL | 1 | 1 | 1 | unchanged |  |  |  |  |  | 
4 | NCCC[C@@H](N)CNC(=O)c1cc2ccc(-c3ccc(F)cc3)cc2[nH]1 [TXA01182] |  |  |  |  |  |  |  |  |  |  |  |  | 8 fold | 100 µg/mL | 0.125 µg/mL | 12.5 mg/kg | neither TXA01182 nor TXA09155 improved levofloxacin efficacy | 6.25 µg/mL
